Experimental data from patent US7973080B2 (Ambria Dermatology AB, priority 2003, dated 2011).

Key:
S. maltophilia = assay: MIC by standard blood agar dilution technique; conditions: inoculate size 10^3
Excerpt: (§1) The following bacteria were investigated: methicillin-resistant Staphylococcus aureus (MSRA), fucidic acid-resistant S. aureus, non-resistant S. pyogenes, coagulation-negative staphylococci (for resistance, see Table 1 below) vancomycin-resistant enterococci (Enterococcus CCUG van A and van B), non-resistant Escherichia coli, Acinetobacter resistant against cefadroxil, nitrofurantin, mecillinam, Serratia maltophilia resistant against most types of antibiotics, Enterobacter (for resistance, see Table 1 below; additionally resistant against cefadroxil and nitrofurantin), non-resistant α-streptococci, non-resistant Streptococcus Group G, Pseudomonas aeruginosa (for resistance, see Table 2 below). Inocula of 10^3 and 10^5 bacteria were used.

[1] = system: methicillin-resistant Staphylococcus aureus; assay: MIC by standard blood agar dilution technique; conditions: MR fuc +, met +
Excerpt: as §1

Enterococcus = assay: MIC by standard blood agar dilution technique; conditions: MR fuc +
Excerpt: as §1

S. pyogenes, group A = assay: MIC by standard blood agar dilution technique
Excerpt: as §1

Escherichia coli = assay: MIC by standard blood agar dilution technique
Excerpt: as §1

male rabbits = conditions: four male rabbits, skin sealed 24 hrs, highest tested dose 20 ml/kg, observed over a fortnight
Protocol: Topical administration. The penetration of rabbit skin was tested with a cuff model. The hair on the back of four male rabbits weighing from 2.5 to 3.5 kg was removed by shaving, the diol applied to the skin with a pipette, and the skin sealed with polyethylene film for 24 hrs. During the test period the animals were immobilised. After the exposure the animals were observed over a fortnight period.

[2] = system: coagulation-negative staphylococci; assay: MIC by standard blood agar dilution technique; conditions: Coag.neg.staph. 900 × 5515; inoculate size 10^3; MR fuc +
Excerpt: as §1

OCCCCCO [pentane-1,5-diol]
MIC (% by weight of pentane-1,5-diol) (S. maltophilia; S. maltophilia 515 × 695): 5.0 % by weight | MIC (% by weight of pentane-1,5-diol) (S. maltophilia; S. maltophilia 515 × 1269): 2.5 % by weight | MIC (% by weight of pentane-1,5-diol) (S. maltophilia; S. maltophilia 516 × 679): 5.0 % by weight | MIC (% by weight of pentane-1,5-diol) (S. maltophilia; S. maltophilia 900 × 1230): 5.0 % by weight | MIC (% by weight of pentane-1,5-diol) (S. maltophilia; S. maltophilia 921 × 16157): 5.0 % by weight | MIC (% by weight of pentane-1,5-diol) ([1]; MRSA CCUG 41787, inoculate size 10^3): 12.5 % by weight | MIC (% by weight of pentane-1,5-diol) ([1]; MRSA CCUG 41787, inoculate size 10^5): 17.5 % by weight | MIC (% by weight of pentane-1,5-diol) ([1]; MRSA CCUG 45007, inoculate size 10^3): 10.0 % by weight | MIC (% by weight of pentane-1,5-diol) ([1]; MRSA CCUG 45007, inoculate size 10^5): 12.5 % by weight | MIC (% by weight of pentane-1,5-diol) ([1]; MRSA CCUG 45008, inoculate size 10^3): 12.5 % by weight | MIC (% by weight of pentane-1,5-diol) ([1]; MRSA CCUG 45008, inoculate size 10^5): 15.0 % by weight | MIC (% by weight of pentane-1,5-diol) ([1]; MRSA CCUG 46463, inoculate size 10^3): 10.0 % by weight | MIC (% by weight of pentane-1,5-diol) ([1]; MRSA CCUG 46463, inoculate size 10^5): 15.0 % by weight | MIC (% by weight of pentane-1,5-diol) ([1]; MRSA CCUG 46618, inoculate size 10^3): 12.5 % by weight | MIC (% by weight of pentane-1,5-diol) ([1]; MRSA CCUG 46618, inoculate size 10^5): 15.0 % by weight | MIC (% by weight of pentane-1,5-diol) ([1]; MRSA CCUG 46740, inoculate size 10^3): 12.5 % by weight | MIC (% by weight of pentane-1,5-diol) ([1]; MRSA CCUG 46740, inoculate size 10^5): 17.5 % by weight | MIC (% by weight of pentane-1,5-diol) ([1]; MRSA CCUG 46870, inoculate size 10^3): 10.0 % by weight | MIC (% by weight of pentane-1,5-diol) ([1]; MRSA CCUG 46870, inoculate size 10^5): 17.5 % by weight | MIC (% by weight of pentane-1,5-diol) ([1]; MRSA CCUG 47019, inoculate size 10^3): 10.0 % by weight | MIC (% by weight of pentane-1,5-diol) ([1]; MRSA CCUG 47019, inoculate size 10^5): 17.5 % by weight | MIC (% by weight of pentane-1,5-diol) ([1]; MRSA Cypem, inoculate size 10^3): 7.5 % by weight | MIC (% by weight of pentane-1,5-diol) ([1]; MRSA Cypem, inoculate size 10^5): 10.0 % by weight | MIC (% by weight of pentane-1,5-diol) ([1]; MRSA PB/SS, inoculate size 10^3): 12.5 % by weight | MIC (% by weight of pentane-1,5-diol) ([1]; MRSA PB/SS, inoculate size 10^5): 15.0 % by weight | MIC (% by weight of pentane-1,5-diol) (Enterococcus; Enterococcus 921 × 57002, inoculate size 10^3, van −, tri −): 7.5 % by weight | MIC (% by weight of pentane-1,5-diol) (Enterococcus; Enterococcus 921 × 57002, inoculate size 10^5, van −, tri −): 10.0 % by weight | MIC (% by weight of pentane-1,5-diol) (Enterococcus; Enterococcus 921 × 57022, inoculate size 10^3, van −, cip +, tri +): 5.0 % by weight | MIC (% by weight of pentane-1,5-diol) (Enterococcus; Enterococcus 921 × 57022, inoculate size 10^5, van −, cip +, tri +): 7.5 % by weight | MIC (% by weight of pentane-1,5-diol) (Enterococcus; Enterococcus 921 × 57057, inoculate size 10^3, van −, tri −): 7.5 % by weight | MIC (% by weight of pentane-1,5-diol) (Enterococcus; Enterococcus 921 × 57057, inoculate size 10^5, van −, tri −): 10.9 % by weight | MIC (% by weight of pentane-1,5-diol) (Enterococcus; Enterococcus 921 × 57093, inoculate size 10^3, van −, tri +): 7.5 % by weight | MIC (% by weight of pentane-1,5-diol) (Enterococcus; Enterococcus 921 × 57093, inoculate size 10^5, van −, tri +): 10.0 % by weight | MIC (% by weight of pentane-1,5-diol) (Enterococcus; Enterococcus 921 × 57158, inoculate size 10^3, van −, tri +): 7.5 % by weight | MIC (% by weight of pentane-1,5-diol) (Enterococcus; Enterococcus 921 × 57158, inoculate size 10^5, van −, tri +): 7.5 % by weight | MIC (% by weight of pentane-1,5-diol) (Enterococcus; Enterococcus CCUG 37593 vanB, inoculate size 10^3, van +): 5.0 % by weight | MIC (% by weight of pentane-1,5-diol) (Enterococcus; Enterococcus CCUG 37593 vanB, inoculate size 10^5, van +): 7.5 % by weight | MIC (% by weight of pentane-1,5-diol) (Enterococcus; Enterococcus CCUG 37832 vanA, inoculate size 10^3, van +): 5.0 % by weight | MIC (% by weight of pentane-1,5-diol) (Enterococcus; Enterococcus CCUG 37832 vanA, inoculate size 10^5, van +): 7.5 % by weight | MIC (% by weight of pentane-1,5-diol) (Enterococcus; Enterococcus CCUG 39128 vanA, inoculate size 10^3, van +): 5.0 % by weight | MIC (% by weight of pentane-1,5-diol) (Enterococcus; Enterococcus CCUG 39128 vanA, inoculate size 10^5, van +): 10.0 % by weight | MIC (% by weight of pentane-1,5-diol) (Enterococcus; Enterococcus CCUG 43324 vanA, inoculate size 10^3, van +): 7.5 % by weight | MIC (% by weight of pentane-1,5-diol) (Enterococcus; Enterococcus CCUG 43324 vanA, inoculate size 10^5, van +): 10.0 % by weight | MIC (% by weight of pentane-1,5-diol) (S. pyogenes, group A; group A 912 × 1090, inoculate size 10^3): 7.5 % by weight | MIC (% by weight of pentane-1,5-diol) (S. pyogenes, group A; group A 912 × 1115, inoculate size 10^3): 7.5 % by weight | MIC (% by weight of pentane-1,5-diol) (S. pyogenes, group A; group A 912 × 1119, inoculate size 10^3): 7.5 % by weight | MIC (% by weight of pentane-1,5-diol) (S. pyogenes, group A; group A 912 × 1121, inoculate size 10^3): 7.5 % by weight | MIC (% by weight of pentane-1,5-diol) (S. pyogenes, group A; group A 912 × 1131, inoculate size 10^3): 7.5 % by weight | MIC (% by weight of pentane-1,5-diol) (Escherichia coli; E. coli 921 × 57387, inoculate size 10^3, MR tri +): 5.0 % by weight | MIC (% by weight of pentane-1,5-diol) (Escherichia coli; E. coli 921 × 57387, inoculate size 10^5, MR tri +): 10.0 % by weight | MIC (% by weight of pentane-1,5-diol) (Escherichia coli; E. coli 921 × 57388, inoculate size 10^3): 5.0 % by weight | MIC (% by weight of pentane-1,5-diol) (Escherichia coli; E. coli 921 × 57388, inoculate size 10^5): 10.0 % by weight | MIC (% by weight of pentane-1,5-diol) (Escherichia coli; E. coli 921 × 57389, inoculate size 10^3): 5.0 % by weight | MIC (% by weight of pentane-1,5-diol) (Escherichia coli; E. coli 921 × 57389, inoculate size 10^5): 10.0 % by weight | MIC (% by weight of pentane-1,5-diol) (Escherichia coli; E. coli 921 × 57397, inoculate size 10^3): 5.0 % by weight | MIC (% by weight of pentane-1,5-diol) (Escherichia coli; E. coli 921 × 57397, inoculate size 10^5): 10.0 % by weight | MIC (% by weight of pentane-1,5-diol) (Escherichia coli; E. coli 921 × 57418, inoculate size 10^3): 5.0 % by weight | MIC (% by weight of pentane-1,5-diol) (Escherichia coli; E. coli 921 × 57418, inoculate size 10^5): 10.0 % by weight | survival after topical administration (male rabbits): the animals survived | MIC (% by weight of pentane-1,5-diol) [2]: 12.5 % by weight
